{"source": "patent US20210292755A1", "about": "“NOVEL DOUBLE-STRANDED OLIGONUCLEOTIDES FOR THE TREATMENT OF CANCER” (SELEXEL, priority 2016, published 2021)", "key": {"AR-encoding mRNA": {"system": "AR-encoding mRNA", "test": "RT-qPCR of AR-encoding mRNA after siRNA transfection", "assay_type": "cell-based, human", "settings": "for AR mRNA expression: both lines", "protocol": "(§1) All the cells used in the following examples are human cells and express H2AX.\n(§2) The cells are cultured in DMEM or RPMI supplemented with 10% fetal calf serum, or as recommended by the ATCC. When indicated, they are transfected with siRNA using lipofectamine (Life Technologies), following the supplier's protocol. The number of living cells after the indicated treatments was quantified by measuring their metabolic activity by the WST1 test according to the supplier's indications (Roche).\n(§3) The effect of siRNA transfection and/or treatments by different chemotherapeutic agents on gene expression was measured: • by RT-qPCR quantification of mRNAs extracted by a conventional phenol-chloroform method (Trizol). The amount of RNA was normalized by measuring the cyclophilin A-encoding mRNA which is not regulated by AR (delta delta CT method). • by Western blotting on protein extracts. The antibodies used are: AR: Santacruz, N-20 sc-816; H2AX: Merck Millipore ref 07-627; Tubulin: Sigma T6199; Actin: Merck Millipore MAB 1501; γH2AX: Merck Millipore 05-636. […] The antibodies used are the following: γH2AX: Merck Millipore 05-636; 53BP1: Novus, NB 100-304."}, "WM266-4 cells": {"system": "WM266-4 cells", "test": "WST1 cell viability test", "assay_type": "cell-based, human", "protocol": "as §1, §2"}, "MDA MB-453 cells": {"system": "MDA MB-453 cells", "test": "WST1 cell viability test", "assay_type": "cell-based, human", "settings": "72 hr after transfection", "protocol": "as §1, §2"}, "LNCaP cells": {"system": "LNCaP cells", "test": "WST1 cell viability test", "assay_type": "cell-based, human", "protocol": "as §1, §2"}, "MDA MB231 cells": {"system": "MDA MB231 cells", "test": "WST1 cell viability test", "assay_type": "cell-based, human", "protocol": "as §1, §2"}, "C4-2 cells": {"system": "C4-2 cells", "test": "WST1 cell viability test", "assay_type": "cell-based, human", "protocol": "as §1, §2"}, "22RV1 cells": {"system": "22RV1 cells", "test": "WST1 cell viability test", "assay_type": "cell-based, human", "settings": "72 hr after transfection", "protocol": "as §1, §2"}, "U87 cells": {"system": "U87 cells", "test": "WST1 cell viability test", "assay_type": "cell-based, human", "settings": "72 hr after transfection", "protocol": "as §1, §2"}, "H2AX": {"system": "H2AX", "test": "Western blot of H2AX after siRNA transfection", "assay_type": "cell-based, human", "protocol": "as §1, §2, §3"}, "53BP1": {"system": "53BP1", "test": "Indirect immunofluorescence of 53BP1, bleomycin-treated transfected cells", "assay_type": "cell-based, human", "protocol": "(§4) FIG. 8: Immuno detection of γH2AX (first column) and 53BP1 (second column) in C4-2 cells treated for 6 h with bleomycin ([…]) or the vehicle added 72 h after transfection of cells by a control siRNA (Cont), siAR7 siRNA, or siARH2AX-1.\nas §1, §2, §3\n(§5) In the experiment shown in FIG. 8, C4-2 cells were transfected with a control or siARH2AX-1 siRNA. 72 hours after transfection, the cells were then treated for 6 hours with […] of bleomycin or the corresponding vehicle."}, "AR": {"system": "AR", "test": "Western blot of AR after siRNA transfection", "assay_type": "cell-based, human", "settings": "C4-2 cells, 72 h after transfection", "protocol": "as §1, §2, §3"}, "H2AX-encoding mRNA": {"system": "H2AX-encoding mRNA", "test": "RT-qPCR of H2AX-encoding mRNA after siRNA transfection", "assay_type": "cell-based, human", "protocol": "as §1, §2, §3"}, "human AR mRNA": {"system": "human AR mRNA", "test": "AR mRNA in tibia of 22RV1 tumor-bearing mice", "assay_type": "in vivo", "settings": "Nude mice with 22RV1 tumors, 0.2 mg/kg/day continuous subcutaneous, 3 weeks, in 154 mM NaCl", "protocol": "Left panel: Expression level of human AR mRNA in nude mouse tibia carrying 22RV1 human prostate tumors in vehicle-treated mice (154 mM NaCl, black bar) or siARH2AX-1 diluted in this vehicle (gray bar) and administered subcutaneously continuously for 3 weeks (mean±SEM, n=7 values relative to the mean value of the NaCl group).\n(§6) Tumors are obtained by subcutaneous injection of tumor cells into the flank of Nude mice. Only animals on which tumor uptake is found are included in the study and randomized to receive treatment or control treatment.\nWhen indicated, the continuous administration of siRNA is carried out by implantation of an Alzet osmotic pump subcutaneously on the back of the mice, on the opposite side to the tumor when the mice wear one. […]\n(§7) At the end of the experiment, the animals are sacrificed, the serum, the tumors and different tissues are dissected, the extracted RNAs and the siRNAs present in these RNAs are quantified.\n(§8) In the experiment shown in FIG. 14, 22RV1 cells were implanted in Nude mice. Once the tumor was detected, Alzet pumps administering either 0.2 mg/kg/day siARH2AX-1 siRNA formulated in saline (154 mM NaCl), or the vehicle alone, were implanted for 3 weeks. At the end of treatment, the bones (tibia) were recovered to quantify siARH2AX-1, and the androgen receptor- and the HPRT-encoding mRNAs of human origin."}, "γH2AX [1]": {"system": "γH2AX", "test": "Western blot of γH2AX after siRNA transfection", "assay_type": "cell-based, human", "settings": "PC3 cells, 72 hours after transfection", "protocol": "as §1, §2, §3"}, "[2]": {"test": "siRNA distribution by RT-qPCR, continuous subcutaneous osmotic pump", "assay_type": "in vivo", "settings": "2 mg/kg/day continuous subcutaneous, 3 days, 22RV1 tumor-bearing mice; 10 mM citrate buffer pH 6 with oxidized LDL (1:0.1 weight:weight) versus 154 mM NaCl", "from_the_text": "To quantify a siRNA in the biological samples, the inventors have developed a reverse transcription method followed by a quantitative PCR (RT-qPCR). For each siRNA, a specific stem-loop primer, having 8 overflowing nucleotides is synthesized, the 8 nucleotides being complementary to the 8 nucleotides of the 3′ end of the siRNA guide (antisense) strand. After a reverse transcription step, the product obtained is amplified by PCR using two primers, one hybridizing with the region corresponding to the loop of the reverse transcription primer. The 12 nucleotides at 3′ of the second primer having a DNA sequence corresponding to the 12 nucleotides of the 5′ end of the newly synthesized cDNA after reverse transcription of the siRNA guide strand. Detection of the amplification is carried out continuously by the degradation of a Taqman fluorescent probe or by incorporation of SybrGreen.\nA range of double stranded siRNAs, from 10^3 to 10^9 copies in the RT reaction, diluted in water is made and treated together with the samples by RT-qPCR.\nThe biological samples in which siRNAs are quantified are either serum or total RNAs extracted from tissue fragments of known weight assumed to contain siRNA. […]\nAt the end of the experiment, the animals are sacrificed, the serum, the tumors and different tissues are dissected, the extracted RNAs and the siRNAs present in these RNAs are quantified. […]"}, "PSA-encoding mRNA": {"system": "PSA-encoding mRNA", "test": "RT-qPCR of PSA-encoding mRNA after siRNA transfection", "assay_type": "cell-based, human", "settings": "LNCaP or C4-2 cells, both lines, 72 hours after transfection", "protocol": "as §1, §2, §3\nIn the experiment shown in FIG. 4, the LNCaP or C4-2 tumor cells were transfected with the following siRNAs: Cont, siAR7 or siARH2AX-1."}, "γH2AX [3]": {"system": "γH2AX", "test": "Indirect immunofluorescence of γH2AX, bleomycin-treated transfected cells", "assay_type": "cell-based, human", "settings": "72 hours after transfection", "protocol": "as §4, §1, §2, §3, §5"}, "[4]": {"system": "22RV1 human prostate tumors", "test": "Bone metastases of 22RV1 tumors in Nude mice (human HPRT mRNA)", "assay_type": "in vivo", "settings": "0.2 mg/kg/day continuous subcutaneous, 3 weeks, in 154 mM NaCl", "protocol": "Right panel: Metastatic load in bone as measured by the expression of human HPRT mRNA in both groups of animals. Each bar represents bone metastatic load in a mouse.\nas §6\n(§9) When indicated, the continuous administration of siRNA is carried out by implantation of an Alzet osmotic pump subcutaneously on the back of the mice, on the opposite side to the tumor when the mice wear one. The concentration of siRNA in the pump is adjusted to deliver the indicated amount in mg/kg/day taking into account the pump flow rate indicated by the manufacturer.\nas §7, §8"}, "[5]": {"system": "22RV1 human prostatic tumor", "test": "Subcutaneous tumor volume in mice", "assay_type": "in vivo", "settings": "2 mg/kg/day", "protocol": "as §6, §9\nThe subcutaneous tumors volume is estimated by measuring with a calliper the largest (D), the smallest (d) diameter of the tumors and their height (h). The volume is calculated by the formula V=D×d×h×Pi/6."}, "[6]": {"settings": "C4-2 cells, 48 hours after transfection, relative to control siRNA"}, "[7]": {"settings": "40 μl of etoposide added 24 hours after transfection, WST1 48 h later"}}, "note": "Entries after “also recorded” stand apart in the source; their conditions may differ.", "data": [{"substance": "siARH2AX-1: bispecific AR-H2AX siRNA, SEQ ID NO: 1 GACUCAGCUGCCCCAUCCA[dT][dT] and SEQ ID NO: 2 UGGAUGGGGCAGCUGAGUC[dT][dT] (chain 1 GACUCAGCUGCCCCAUCCANN; chain 2 UGGAUGGGGCAGCUGAGUCNN; 3' dTdT overhangs, chemistry not fully specified)", "values": [{"measurement": "AR expression (mRNA)", "setting": "AR-encoding mRNA; [6]", "result": "inhibit AR expression in a similar manner"}, {"measurement": "AR mRNA expression", "setting": "AR-encoding mRNA; LNCaP or C4-2 cells, 72 hours after transfection", "result": "inhibit the expression of AR and PSA"}, {"measurement": "AR mRNA expression", "setting": "AR-encoding mRNA; LNCaP or MDA MB-453 cells, 72 h after transfection", "result": "inhibits the expression of the two AR- and H2AX-encoding mRNAs"}, {"measurement": "cell viability, siRNA combined with etoposide", "setting": "WM266-4 cells; [7]", "result": "potentiate when combined"}, {"measurement": "cell viability / proliferation", "setting": "WM266-4 cells; 72 hr after transfection", "result": "inhibits the proliferation of all cell lines"}, {"measurement": "cell viability / proliferation", "setting": "MDA MB-453 cells", "result": "inhibits the proliferation of all cell lines"}, {"measurement": "cell viability / proliferation", "setting": "LNCaP cells; 72 hr after transfection", "result": "inhibits the proliferation of all cell lines"}, {"measurement": "cell survival, siRNA combined with bleomycin, versus addition of the separate effects", "setting": "LNCaP cells; bleomycin (10 μM)", "result": "approximately twice as inhibitory"}, {"measurement": "cell viability, siRNA combined with etoposide", "setting": "MDA MB231 cells; [7]", "result": "potentiate when combined"}, {"measurement": "cell viability / proliferation", "setting": "MDA MB231 cells; 72 hr after transfection", "result": "inhibits the proliferation of all cell lines"}, {"measurement": "cell viability", "setting": "MDA MB231 cells; 90 hours after transfection", "result": "significantly reduced"}, {"measurement": "cell viability / proliferation", "setting": "C4-2 cells; 72 hr after transfection", "result": "inhibits the proliferation of all cell lines"}, {"measurement": "cell viability", "setting": "C4-2 cells; 90 hours after transfection", "result": "significantly reduced"}, {"measurement": "cell viability, siRNA combined with bleomycin", "setting": "C4-2 cells; bleomycin (10 μM) added 48 hours after transfection, read 48 hours later, versus chemotherapeutic agent alone", "result": "potentiate to inhibit cell viability"}, {"measurement": "cell viability, siRNA combined with etoposide", "setting": "C4-2 cells; etoposide (10 μM) added 48 hours after transfection, read 48 hours later, versus chemotherapeutic agent alone", "result": "potentiate to inhibit cell viability"}, {"measurement": "cell viability / proliferation", "setting": "22RV1 cells", "result": "inhibits the proliferation of all cell lines"}, {"measurement": "cell viability / proliferation", "setting": "U87 cells", "result": "inhibits the proliferation of all cell lines"}, {"measurement": "H2AX protein expression", "setting": "H2AX; C4-2 cells, 72 h after transfection", "result": "inhibits the expression of both AR and H2AX proteins"}, {"measurement": "H2AX protein expression", "setting": "H2AX; PC3 cells, 72 hours after transfection", "result": "is inhibited"}, {"measurement": "expression of 53BP1", "setting": "53BP1; C4-2 cells, 72 hours after transfection, without bleomycin, compared to control condition", "result": "comparable"}, {"measurement": "DNA repair", "setting": "53BP1; conclusion from γH2AX/53BP1 experiment in C4-2 cells", "result": "inhibits DNA repair"}, {"measurement": "recruitment of 53BP1 to DNA lesions after bleomycin", "setting": "53BP1; siRNA-transfected C4-2 cells, 72 hours after transfection, bleomycin 6 hours", "result": "no increase H2AX or recruitment of 53BP1"}, {"measurement": "AR protein expression", "setting": "AR", "result": "inhibits the expression of both AR and H2AX proteins"}, {"measurement": "H2AX expression (mRNA)", "setting": "H2AX-encoding mRNA; [6]", "result": "much more effective than siAR2 siRNA in inhibiting H2AX expression"}, {"measurement": "inhibition of H2AX mRNA expression", "setting": "H2AX-encoding mRNA; LNCaP or C4-2 cells, both lines, 72 hours after transfection", "result": "more than 90%"}, {"measurement": "H2AX mRNA expression", "setting": "H2AX-encoding mRNA; LNCaP or MDA MB-453 cells, both lines, 72 h after transfection", "result": "inhibits the expression of the two AR- and H2AX-encoding mRNAs"}, {"measurement": "expression of the androgen receptor in the bones (tibia)", "setting": "human AR mRNA", "result": "inhibit the expression of the androgen receptor"}, {"measurement": "γH2AX phosphorylated form", "setting": "γH2AX [1]", "result": "inhibition of its γH2AX phosphorylated form"}, {"measurement": "concentration of siARH2AX-1 in serum, different organs and tumors", "setting": "[2]", "result": "increases the concentration"}, {"measurement": "PSA mRNA expression", "setting": "PSA-encoding mRNA", "result": "inhibit the expression of AR and PSA"}, {"measurement": "expression of H2AX (immunofluorescence)", "setting": "γH2AX [3]; C4-2 cells, without bleomycin, compared to control condition", "result": "very small compared to the control condition"}, {"measurement": "γH2AX labeling after bleomycin", "setting": "γH2AX [3]; siRNA-transfected C4-2 cells, bleomycin 6 hours", "result": "no increase H2AX"}, {"measurement": "number of mice spontaneously developing bone metastases", "setting": "[4]", "result": "decrease in the number of mice spontaneously developing bone metastases"}, {"measurement": "size of bone metastases (human HPRT mRNA level in bone)", "setting": "[4]", "result": "decrease in the size of these tumors"}, {"measurement": "tumor development, combination with etoposide", "setting": "[5]; siARH2AX-1 2 mg/kg/day continuous subcutaneous plus etoposide intraperitoneal", "result": "potentiates the effect of these two treatments taken separately; also recorded: amplifies tumor growth inhibition"}, {"measurement": "tumor development", "setting": "[5]; siARH2AX-1 2 mg/kg/day continuous subcutaneous, 22 days, 10 mM citrate buffer pH 6 with 10 mM MgCl2", "result": "as effective as the high dose of etoposide; also recorded: effectively inhibits tumor development"}]}]}
